Data reported in paper PMC10327353 (Breast Cancer Research : BCR, 2023).

Experiment: Phase 1 study: safety and tolerability
Type: in vivo
Procedure: The maximum tolerated dose (MTD) of DZD1516 was defined based on safety data and the Bayesian optimal interval (BOIN) design (Additional file 1). The definition of DLT is provided in Additional file 1.
The AE grading was assessed according to the NCI-Common Terminology Criteria for Adverse Events (CTCAE) (version 5.0) and was monitored until 28 days after the last dose.
Eligible patients received single oral dosing of DZD1516 on Cycle 0 Day 1 (C0D1), followed by a 7-day washout. Twice daily oral dosing (bid) of DZD1516 was commenced from C1D1 in a continuous 21-day cycle until disease progression, unacceptable toxicity, or withdrawal of consent. All doses were taken under fed conditions (within 30 minutes after a meal).
Planned dosing consisted of 25, 50, 100, 200, 300, and 400 mg. Each dose escalation cohort will comprise a minimum of three and a maximum of six evaluable patients (except only one patient in the starting dose cohort). The maximum tolerated dose of DZD1516 was defined according to safety data and the Bayesian optimal interval (BOIN) design. Dose escalation/de-escalation rule with target toxicity rate for the MTD is 0.30 with interval of (0.20, 0.33).
DLTs were any adverse event (AE) not clearly attributable to the patient’s disease, including ≥ grade 4 hematological toxicities present for ≥ 4 days, grade 3 thrombocytopenia with bleeding, or grade 4 thrombocytopenia lasting for > 5 days, ≥ grade 3 non-hematological toxicities that is dose-limiting in the judgment of the investigators. Any other toxicity that is greater than that at baseline, is clinically significant or unacceptable, and is judged to be a DLT by the SRC. Exceptions included alopecia of any grade and isolated grade 3 laboratory change without clinical sequelae or clinical significance.
Safety evaluations were conducted at screening, on Day 1, 8, and 15 of Cycle 1, on Day 1 of each subsequent treatment cycle, at the end-of-treatment visit, and clinically indicated. Safety assessments included clinical laboratory measurements (hematology, chemistry, coagulation, and urinalysis), electrocardiogram (ECG), Echocardiogram/MUGA scan, ECOG performance status, vital signs, and physical examinations.

COc1cc(O[C@H]2CCN(C)CC2(F)F)c2c(Nc3ccc(Oc4ccn5ncnc5c4)c(C)c3)ncnc2c1 [DZD1516]
Nervous system disorders, Any Grade (50 mg (N = 4)): 1 (25.0) n (%)
Nervous system disorders, ≥ Grade 3 (50 mg (N = 4)): 0 (0.0) n (%)
Participants with any TEAE, Any Grade (50 mg (N = 4)): 3 (75.0) n (%)
Participants with any TEAE, ≥ Grade 3 (50 mg (N = 4)): 0 (0.0) n (%)
Platelet count decreased, Any Grade (50 mg (N = 4)): 1 (25.0) n (%)
Platelet count decreased, ≥ Grade 3 (50 mg (N = 4)): 0 (0.0) n (%)
Proteinuria, Any Grade (50 mg (N = 4)): 1 (25.0) n (%)
Proteinuria, ≥ Grade 3 (50 mg (N = 4)): 0 (0.0) n (%)
Renal and urinary disorders, Any Grade (50 mg (N = 4)): 1 (25.0) n (%)
Renal and urinary disorders, ≥ Grade 3 (50 mg (N = 4)): 0 (0.0) n (%)
Subjects with any TEAE (50 mg (N = 4)): 3 (75.0) n (%)
Subjects with any drug-related TEAE (50 mg (N = 4)): 3 (75.0) n (%)
Vomiting, Any Grade (50 mg (N = 4)): 0 (0.0) n (%)
Vomiting, ≥ Grade 3 (50 mg (N = 4)): 0 (0.0) n (%)
White blood cell count decreased, Any Grade (50 mg (N = 4)): 1 (25.0) n (%)
White blood cell count decreased, ≥ Grade 3 (50 mg (N = 4)): 0 (0.0) n (%)
Alanine aminotransferase increased, Any Grade (100 mg (N = 4)): 0 (0.0) n (%)
Alanine aminotransferase increased, ≥ Grade 3 (100 mg (N = 4)): 0 (0.0) n (%)
Anemia, Any Grade (100 mg (N = 4)): 1 (25.0) n (%)
Anemia, ≥ Grade 3 (100 mg (N = 4)): 0 (0.0) n (%)
Any TEAE: Grade 3 (100 mg (N = 4)): 1 (25.0) n (%)
Any TEAE: Leading to death (100 mg (N = 4)): 0 (0.0) n (%)
Any TEAE: Leading to dose reduction (100 mg (N = 4)): 0 (0.0) n (%)
Any TEAE: Leading to treatment discontinuation (100 mg (N = 4)): 0 (0.0) n (%)
Any TEAE: Leading to treatment interruption (100 mg (N = 4)): 1 (25.0) n (%)
Any TEAE: SAE (100 mg (N = 4)): 1 (25.0) n (%)
Aspartate aminotransferase increased, Any Grade (100 mg (N = 4)): 0 (0.0) n (%)
Aspartate aminotransferase increased, ≥ Grade 3 (100 mg (N = 4)): 0 (0.0) n (%)
Blood and lymphatic system disorders, Any Grade (100 mg (N = 4)): 1 (25.0) n (%)
Blood and lymphatic system disorders, ≥ Grade 3 (100 mg (N = 4)): 0 (0.0) n (%)
Blood bilirubin increased, Any Grade (100 mg (N = 4)): 0 (0.0) n (%)
Blood bilirubin increased, ≥ Grade 3 (100 mg (N = 4)): 0 (0.0) n (%)
Cardiac disorders, Any Grade (100 mg (N = 4)): 0 (0.0) n (%)
Cardiac disorders, ≥ Grade 3 (100 mg (N = 4)): 0 (0.0) n (%)
Constipation, Any Grade (100 mg (N = 4)): 1 (25.0) n (%)
Constipation, ≥ Grade 3 (100 mg (N = 4)): 0 (0.0) n (%)
Decreased appetite, Any Grade (100 mg (N = 4)): 1 (25.0) n (%)
Decreased appetite, ≥ Grade 3 (100 mg (N = 4)): 0 (0.0) n (%)
Dizziness, Any Grade (100 mg (N = 4)): 1 (25.0) n (%)
Dizziness, ≥ Grade 3 (100 mg (N = 4)): 0 (0.0) n (%)
Drug-related TEAE: Grade 3 (100 mg (N = 4)): 1 (25.0) n (%)
Drug-related TEAE: Leading to death (100 mg (N = 4)): 0 (0.0) n (%)
Drug-related TEAE: Leading to dose reduction (100 mg (N = 4)): 0 (0.0) n (%)
Drug-related TEAE: Leading to treatment discontinuation (100 mg (N = 4)): 0 (0.0) n (%)
Drug-related TEAE: Leading to treatment interruption (100 mg (N = 4)): 1 (25.0) n (%)
Drug-related TEAE: SAE (100 mg (N = 4)): 1 (25.0) n (%)
Fatigue, Any Grade (100 mg (N = 4)): 1 (25.0) n (%)
Fatigue, ≥ Grade 3 (100 mg (N = 4)): 0 (0.0) n (%)
Gastrointestinal disorders, Any Grade (100 mg (N = 4)): 2 (50.0) n (%)
Gastrointestinal disorders, ≥ Grade 3 (100 mg (N = 4)): 1 (25.0) n (%)
General disorders and administration site conditions, Any Grade (100 mg (N = 4)): 1 (25.0) n (%)
General disorders and administration site conditions, ≥ Grade 3 (100 mg (N = 4)): 0 (0.0) n (%)
Headache, Any Grade (100 mg (N = 4)): 2 (50.0) n (%)
Headache, ≥ Grade 3 (100 mg (N = 4)): 0 (0.0) n (%)
Hemoglobin decreased, Any Grade (100 mg (N = 4)): 0 (0.0) n (%)
Hemoglobin decreased, ≥ Grade 3 (100 mg (N = 4)): 0 (0.0) n (%)
Investigations, Any Grade (100 mg (N = 4)): 3 (75.0) n (%)
Investigations, ≥ Grade 3 (100 mg (N = 4)): 1 (25.0) n (%)
Lipase increased, Any Grade (100 mg (N = 4)): 0 (0.0) n (%)
Lipase increased, ≥ Grade 3 (100 mg (N = 4)): 0 (0.0) n (%)
Malaise, Any Grade (100 mg (N = 4)): 0 (0.0) n (%)
Malaise, ≥ Grade 3 (100 mg (N = 4)): 0 (0.0) n (%)
Metabolism and nutrition disorders, Any Grade (100 mg (N = 4)): 3 (75.0) n (%)
Metabolism and nutrition disorders, ≥ Grade 3 (100 mg (N = 4)): 0 (0.0) n (%)
Musculoskeletal and connective tissue disorders, Any Grade (100 mg (N = 4)): 0 (0.0) n (%)
Musculoskeletal and connective tissue disorders, ≥ Grade 3 (100 mg (N = 4)): 0 (0.0) n (%)
Nausea, Any Grade (100 mg (N = 4)): 0 (0.0) n (%)
Nausea, ≥ Grade 3 (100 mg (N = 4)): 0 (0.0) n (%)
Nervous system disorders, Any Grade (100 mg (N = 4)): 3 (75.0) n (%)
Nervous system disorders, ≥ Grade 3 (100 mg (N = 4)): 0 (0.0) n (%)
Participants with any TEAE, Any Grade (100 mg (N = 4)): 4 (100.0) n (%)
Participants with any TEAE, ≥ Grade 3 (100 mg (N = 4)): 1 (25.0) n (%)
Platelet count decreased, Any Grade (100 mg (N = 4)): 1 (25.0) n (%)
Platelet count decreased, ≥ Grade 3 (100 mg (N = 4)): 0 (0.0) n (%)
Proteinuria, Any Grade (100 mg (N = 4)): 0 (0.0) n (%)
Proteinuria, ≥ Grade 3 (100 mg (N = 4)): 0 (0.0) n (%)
Renal and urinary disorders, Any Grade (100 mg (N = 4)): 1 (25.0) n (%)
Renal and urinary disorders, ≥ Grade 3 (100 mg (N = 4)): 0 (0.0) n (%)
Subjects with any TEAE (100 mg (N = 4)): 4 (100.0) n (%)
Subjects with any drug-related TEAE (100 mg (N = 4)): 4 (100.0) n (%)
Vomiting, Any Grade (100 mg (N = 4)): 2 (50.0) n (%)
Vomiting, ≥ Grade 3 (100 mg (N = 4)): 1 (25.0) n (%)
White blood cell count decreased, Any Grade (100 mg (N = 4)): 0 (0.0) n (%)
White blood cell count decreased, ≥ Grade 3 (100 mg (N = 4)): 0 (0.0) n (%)
Alanine aminotransferase increased, Any Grade (200 mg (N = 5)): 0 (0.0) n (%)
Alanine aminotransferase increased, ≥ Grade 3 (200 mg (N = 5)): 0 (0.0) n (%)
Anemia, Any Grade (200 mg (N = 5)): 1 (20.0) n (%)
Anemia, ≥ Grade 3 (200 mg (N = 5)): 0 (0.0) n (%)
Any TEAE: Grade 3 (200 mg (N = 5)): 1 (20.0) n (%)
Any TEAE: Leading to death (200 mg (N = 5)): 0 (0.0) n (%)
Any TEAE: Leading to dose reduction (200 mg (N = 5)): 0 (0.0) n (%)
Any TEAE: Leading to treatment discontinuation (200 mg (N = 5)): 0 (0.0) n (%)
Any TEAE: Leading to treatment interruption (200 mg (N = 5)): 0 (0.0) n (%)
Any TEAE: SAE (200 mg (N = 5)): 0 (0.0) n (%)
Aspartate aminotransferase increased, Any Grade (200 mg (N = 5)): 1 (20.0) n (%)
Aspartate aminotransferase increased, ≥ Grade 3 (200 mg (N = 5)): 0 (0.0) n (%)
Blood and lymphatic system disorders, Any Grade (200 mg (N = 5)): 1 (20.0) n (%)
Blood and lymphatic system disorders, ≥ Grade 3 (200 mg (N = 5)): 0 (0.0) n (%)
Blood bilirubin increased, Any Grade (200 mg (N = 5)): 2 (40.0) n (%)
Blood bilirubin increased, ≥ Grade 3 (200 mg (N = 5)): 0 (0.0) n (%)
Cardiac disorders, Any Grade (200 mg (N = 5)): 1 (20.0) n (%)
Cardiac disorders, ≥ Grade 3 (200 mg (N = 5)): 0 (0.0) n (%)
Constipation, Any Grade (200 mg (N = 5)): 1 (20.0) n (%)
Constipation, ≥ Grade 3 (200 mg (N = 5)): 0 (0.0) n (%)
Decreased appetite, Any Grade (200 mg (N = 5)): 0 (0.0) n (%)
Decreased appetite, ≥ Grade 3 (200 mg (N = 5)): 0 (0.0) n (%)
Dizziness, Any Grade (200 mg (N = 5)): 0 (0.0) n (%)
Dizziness, ≥ Grade 3 (200 mg (N = 5)): 0 (0.0) n (%)
Drug-related TEAE: Grade 3 (200 mg (N = 5)): 1 (20.0) n (%)
Drug-related TEAE: Leading to death (200 mg (N = 5)): 0 (0.0) n (%)
Drug-related TEAE: Leading to dose reduction (200 mg (N = 5)): 0 (0.0) n (%)
Drug-related TEAE: Leading to treatment discontinuation (200 mg (N = 5)): 0 (0.0) n (%)
Drug-related TEAE: Leading to treatment interruption (200 mg (N = 5)): 0 (0.0) n (%)
Drug-related TEAE: SAE (200 mg (N = 5)): 0 (0.0) n (%)
Fatigue, Any Grade (200 mg (N = 5)): 1 (20.0) n (%)
Fatigue, ≥ Grade 3 (200 mg (N = 5)): 0 (0.0) n (%)
Gastrointestinal disorders, Any Grade (200 mg (N = 5)): 3 (60.0) n (%)
Gastrointestinal disorders, ≥ Grade 3 (200 mg (N = 5)): 0 (0.0) n (%)
General disorders and administration site conditions, Any Grade (200 mg (N = 5)): 2 (40.0) n (%)
General disorders and administration site conditions, ≥ Grade 3 (200 mg (N = 5)): 0 (0.0) n (%)
Headache, Any Grade (200 mg (N = 5)): 1 (20.0) n (%)
